Experiments:
U-2 OS cell line = test: Cell viability MTS assay, dose-response; format: cell-based; conditions: Homo sapiens, U2OS; 48 h, MTS assay in triplicate, doses up to 50 µM
Method: HCT116 cells were cultured in McCoy’s medium. SH-SY5Y, MDA-MB231 and U-2 OS cells were cultured in Dulbecco's modified Eagle's medium (DMEM) and hTERT RPE-1 cells in DMEM:F12 medium. All media were supplemented with 10% foetal calf serum and cells were cultured at 37 °C in a 5% CO2 humidified atmosphere.
Cell viability was then assessed using the CellTiter96 AQueous cell proliferation assay from Promega according to the manufacturer’s instructions. Each experiment was done in triplicate and EC50 were determined from the dose-response curves according to the signal given by the control (0.1% DMSO) set at 100% viability using Prism GraphPad software.

SPHK2 = biological target: T1, SPHK2 (Homo sapiens, UniProt Q9NRA0); test: SelectScreen Adapta; format: biochemical; conditions: ATP 10 µM, read-out: Percentage of inhibition
T1 construct: purchased Life Technologies (SelectScreen Whole Panel)
Method: (§1) We further evaluated the selectivity profile of compound 55 on a larger panel of kinases (SelectScreen Whole Panel, Life Technologies). The inhibition profile of 55, evaluated at 1 μM, is depicted on a dendrogram on Figure 3 where kinases inhibited by a minimum of 80% are shown. A full list of the kinases tested is shown on Table S1 in supplementary information.

[1] = biological target: T2, PIK3CD/PIK3R1 (p110 delta/p85 alpha) (Homo sapiens, UniProt O00329); test: SelectScreen Adapta; format: biochemical; conditions: ATP Km, read-out: Percentage of inhibition
T2 construct: purchased Life Technologies (SelectScreen Whole Panel service)
Method: as §1

PIK3C2G (PI3K-C2 gamma) = biological target: T3, PIK3C2G (PI3K-C2 gamma) (Homo sapiens, UniProt O75747); test: SelectScreen Adapta; format: biochemical; conditions: ATP Km, read-out: Percentage of inhibition
T3 construct: purchased Life Technologies (SelectScreen Whole Panel service)
Method: as §1

LRRK2 I2020T = biological target: T4, LRRK2 I2020T (Homo sapiens, UniProt Q5S007, I2020T); test: SelectScreen Adapta; format: biochemical; conditions: ATP Km, read-out: Percentage of inhibition
T4 construct: purchased Life Technologies (SelectScreen Whole Panel)
T4 sequence (Q5S007 970-2527 I2020T limits assumed): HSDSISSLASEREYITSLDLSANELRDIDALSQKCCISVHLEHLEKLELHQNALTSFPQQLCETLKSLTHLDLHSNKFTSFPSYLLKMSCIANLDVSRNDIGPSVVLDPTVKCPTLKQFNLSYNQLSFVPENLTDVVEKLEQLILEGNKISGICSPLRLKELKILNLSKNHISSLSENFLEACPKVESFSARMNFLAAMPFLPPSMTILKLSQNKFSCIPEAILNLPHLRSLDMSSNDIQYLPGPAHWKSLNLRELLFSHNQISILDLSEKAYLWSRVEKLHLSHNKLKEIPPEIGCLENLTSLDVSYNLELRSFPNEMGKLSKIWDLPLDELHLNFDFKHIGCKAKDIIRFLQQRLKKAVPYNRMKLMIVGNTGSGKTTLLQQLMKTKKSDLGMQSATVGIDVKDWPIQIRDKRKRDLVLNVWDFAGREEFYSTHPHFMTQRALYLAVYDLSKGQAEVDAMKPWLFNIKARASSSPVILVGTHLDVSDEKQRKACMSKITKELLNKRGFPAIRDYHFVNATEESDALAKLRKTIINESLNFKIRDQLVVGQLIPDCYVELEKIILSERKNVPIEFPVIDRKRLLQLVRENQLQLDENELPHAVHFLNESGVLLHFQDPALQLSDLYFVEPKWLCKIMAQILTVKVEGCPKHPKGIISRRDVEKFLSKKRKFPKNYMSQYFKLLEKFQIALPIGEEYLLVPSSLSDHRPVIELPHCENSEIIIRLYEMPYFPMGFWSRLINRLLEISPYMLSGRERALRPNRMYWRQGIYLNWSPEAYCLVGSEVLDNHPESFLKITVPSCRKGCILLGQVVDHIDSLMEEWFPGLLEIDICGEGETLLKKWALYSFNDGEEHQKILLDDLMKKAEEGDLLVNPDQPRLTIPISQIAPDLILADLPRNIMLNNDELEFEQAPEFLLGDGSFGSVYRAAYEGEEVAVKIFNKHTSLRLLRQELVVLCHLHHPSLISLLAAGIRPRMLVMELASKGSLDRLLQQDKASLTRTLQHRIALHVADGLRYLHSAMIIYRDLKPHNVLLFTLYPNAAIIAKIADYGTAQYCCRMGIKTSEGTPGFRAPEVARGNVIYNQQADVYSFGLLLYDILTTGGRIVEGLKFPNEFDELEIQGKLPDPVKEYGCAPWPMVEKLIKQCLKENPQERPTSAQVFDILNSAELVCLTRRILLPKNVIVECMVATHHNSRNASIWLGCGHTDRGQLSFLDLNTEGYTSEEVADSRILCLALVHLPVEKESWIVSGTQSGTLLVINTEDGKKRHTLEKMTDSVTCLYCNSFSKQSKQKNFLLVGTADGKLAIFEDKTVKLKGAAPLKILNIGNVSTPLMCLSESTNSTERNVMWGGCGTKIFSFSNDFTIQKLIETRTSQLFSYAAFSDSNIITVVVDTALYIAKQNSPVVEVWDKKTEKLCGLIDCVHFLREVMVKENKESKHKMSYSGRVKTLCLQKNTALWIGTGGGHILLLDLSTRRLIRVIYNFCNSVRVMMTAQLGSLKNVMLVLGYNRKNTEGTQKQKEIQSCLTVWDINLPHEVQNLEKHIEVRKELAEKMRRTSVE
Method: as §1

PIK3CG (p110 gamma) = PIK3CG (p110 gamma) (Homo sapiens, UniProt P48736); test: SelectScreen Adapta; format: biochemical; conditions: ATP Km, read-out: Percentage of inhibition
Method: as §1

PIK3C2A (PI3K-C2 alpha) = PIK3C2A (PI3K-C2 alpha) (Homo sapiens, UniProt O00443); test: SelectScreen Adapta; format: biochemical; conditions: ATP Km, read-out: Percentage of inhibition
Method: as §1

CDK6/cyclin D1 = CDK6/cyclin D1 (Homo sapiens, UniProt Q00534); test: SelectScreen Adapta; format: biochemical; conditions: ATP 10 µM, read-out: Percentage of inhibition
Method: as §1

PI4K2B (PI4K2 beta) = biological target: T5, PI4K2B (PI4K2 beta) (Homo sapiens, UniProt Q8TCG2); test: SelectScreen Adapta; format: biochemical; conditions: ATP Km, read-out: Percentage of inhibition
T5 construct: purchased Life Technologies (SelectScreen Whole Panel)
T5 sequence (Q8TCG2 whole entry): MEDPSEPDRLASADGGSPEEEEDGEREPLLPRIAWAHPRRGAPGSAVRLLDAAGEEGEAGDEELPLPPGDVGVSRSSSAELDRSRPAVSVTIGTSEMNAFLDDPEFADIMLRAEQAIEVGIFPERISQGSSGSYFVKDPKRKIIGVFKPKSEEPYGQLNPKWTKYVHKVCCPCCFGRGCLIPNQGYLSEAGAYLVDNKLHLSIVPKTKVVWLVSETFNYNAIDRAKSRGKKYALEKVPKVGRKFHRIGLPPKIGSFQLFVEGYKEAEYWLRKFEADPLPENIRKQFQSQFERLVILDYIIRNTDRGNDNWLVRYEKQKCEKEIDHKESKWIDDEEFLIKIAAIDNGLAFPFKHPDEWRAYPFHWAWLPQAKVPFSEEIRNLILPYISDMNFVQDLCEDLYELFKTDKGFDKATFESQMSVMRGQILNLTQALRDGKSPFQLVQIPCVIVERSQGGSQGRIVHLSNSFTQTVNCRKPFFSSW
Method: as §1

[2] = biological target: T6, PIK3CB/PIK3R1 (p110 beta/p85 alpha) (Homo sapiens, UniProt P42338); test: SelectScreen Adapta; format: biochemical; conditions: ATP Km, read-out: Percentage of inhibition
T6 construct: purchased Life Technologies (SelectScreen)
Method: as §1

LRRK2 R1441C = biological target: T7, LRRK2 R1441C (Homo sapiens, UniProt Q5S007, R1441C); test: SelectScreen Adapta; format: biochemical; conditions: ATP Km, read-out: Percentage of inhibition
T7 construct: purchased Life Technologies
Method: as §1

PIK3C2B = PIK3C2B (Homo sapiens, UniProt O00750); test: SelectScreen Adapta; format: biochemical; conditions: ATP 10 µM, read-out: Percentage of inhibition
Method: as §1

PI4KA (PI4K alpha) = biological target: T8, PI4KA (PI4K alpha) (Homo sapiens, UniProt P42356); test: SelectScreen Adapta; format: biochemical; conditions: ATP 10 µM, read-out: Percentage of inhibition
T8 construct: purchased Life Technologies (SelectScreen Whole Panel)
Method: as §1

PIP5K1C = biological target: T9, PIP5K1C (Homo sapiens, UniProt O60331); test: SelectScreen Adapta; format: biochemical; conditions: ATP 10 µM, read-out: Percentage of inhibition
T9 construct: purchased Life Technologies (SelectScreen Whole Panel service)
T9 sequence (O60331 whole entry): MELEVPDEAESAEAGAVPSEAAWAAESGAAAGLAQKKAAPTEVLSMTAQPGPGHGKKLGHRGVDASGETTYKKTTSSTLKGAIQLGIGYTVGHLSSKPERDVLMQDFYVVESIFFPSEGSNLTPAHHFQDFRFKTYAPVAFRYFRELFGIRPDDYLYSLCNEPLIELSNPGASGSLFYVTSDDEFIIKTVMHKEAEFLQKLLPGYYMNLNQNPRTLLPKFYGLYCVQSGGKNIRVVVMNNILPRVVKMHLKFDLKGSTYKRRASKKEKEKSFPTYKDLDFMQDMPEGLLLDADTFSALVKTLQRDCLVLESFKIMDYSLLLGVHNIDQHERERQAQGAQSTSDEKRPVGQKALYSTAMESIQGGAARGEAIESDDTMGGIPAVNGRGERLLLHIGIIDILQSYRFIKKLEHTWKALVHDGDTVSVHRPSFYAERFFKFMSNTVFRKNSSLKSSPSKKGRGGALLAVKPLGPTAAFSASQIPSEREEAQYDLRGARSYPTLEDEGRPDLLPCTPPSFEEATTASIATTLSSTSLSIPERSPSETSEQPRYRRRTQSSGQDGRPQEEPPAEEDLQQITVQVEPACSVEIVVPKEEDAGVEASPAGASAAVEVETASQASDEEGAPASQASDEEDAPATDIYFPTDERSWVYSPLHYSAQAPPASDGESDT
Method: as §1

[3] = biological target: T10, PIK3CB/PIK3R2 (p110 beta/p85 beta) (Homo sapiens, UniProt P42338); test: SelectScreen Adapta; format: biochemical; conditions: ATP Km, read-out: Percentage of inhibition
T10 construct: purchased Life Technologies
Method: as §1

LRRK2 FL = biological target: T11, LRRK2 FL (Homo sapiens, UniProt Q5S007); test: SelectScreen Adapta; format: biochemical; conditions: ATP Km, read-out: Percentage of inhibition
T11 construct: purchased Life Technologies
Method: as §1

PIP5K1B = biological target: T12, PIP5K1B (Homo sapiens, UniProt O14986); test: SelectScreen Adapta; format: biochemical; conditions: ATP 10 µM, read-out: Percentage of inhibition
T12 construct: purchased Life Technologies
T12 sequence (O14986 whole entry): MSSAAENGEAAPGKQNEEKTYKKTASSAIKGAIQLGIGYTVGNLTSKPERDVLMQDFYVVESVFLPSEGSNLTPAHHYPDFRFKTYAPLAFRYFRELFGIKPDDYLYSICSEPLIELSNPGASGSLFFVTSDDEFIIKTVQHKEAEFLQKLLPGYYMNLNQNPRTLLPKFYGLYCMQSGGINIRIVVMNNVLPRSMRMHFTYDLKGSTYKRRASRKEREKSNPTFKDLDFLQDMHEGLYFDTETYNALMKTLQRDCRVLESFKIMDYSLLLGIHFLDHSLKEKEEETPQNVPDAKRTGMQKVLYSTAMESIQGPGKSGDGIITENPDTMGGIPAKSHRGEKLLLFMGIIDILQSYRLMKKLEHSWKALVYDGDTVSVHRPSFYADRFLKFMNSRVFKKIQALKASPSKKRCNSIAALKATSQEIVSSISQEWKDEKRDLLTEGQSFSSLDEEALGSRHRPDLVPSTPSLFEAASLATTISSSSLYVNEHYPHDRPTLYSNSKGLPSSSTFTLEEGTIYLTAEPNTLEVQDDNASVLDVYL
Method: as §1

DAPK1 = DAPK1 (Homo sapiens, UniProt P53355); test: SelectScreen Adapta; format: biochemical; conditions: ATP Km, read-out: Percentage of inhibition
Method: as §1

PI4KB (PI4K beta) = biological target: T13, PI4KB (PI4K beta) (Homo sapiens, UniProt Q9UBF8); test: SelectScreen Adapta; format: biochemical; conditions: ATP Km, read-out: Percentage of inhibition
T13 construct: purchased Life Technologies
Method: as §1

CDK7/cyclin H/MNAT1 = biological target: T14, CDK7/cyclin H/MNAT1 (Homo sapiens, UniProt P50613); test: SelectScreen Adapta; format: biochemical; conditions: ATP Km, read-out: Percentage of inhibition
T14 construct: purchased Life Technologies
Method: as §1

LRRK2 G2019S = biological target: T15, LRRK2 G2019S (Homo sapiens, UniProt Q5S007, G2019S); test: SelectScreen Adapta; format: biochemical; conditions: ATP Km, read-out: Percentage of inhibition
T15 construct: purchased Life Technologies
T15 sequence (Q5S007 970-2527 G2019S limits assumed): as the sequence (Q5S007 970-2527 I2020T limits assumed) above, with G1050S, T1051I counted along it
Method: as §1

PIK3C3 (hVPS34) = biological target: T16, PIK3C3 (hVPS34) (Homo sapiens, UniProt Q8NEB9); test: SelectScreen Adapta; format: biochemical; conditions: ATP Km, read-out: Percentage of inhibition
T16 construct: purchased Life Technologies (SelectScreen)
Method: as §1

CAMK1 (CaMK1) = biological target: T17, CAMK1 (CaMK1) (Homo sapiens, UniProt Q14012); test: SelectScreen Adapta; format: biochemical; conditions: ATP 10 µM, read-out: Percentage of inhibition
T17 construct: purchased Life Technologies (SelectScreen Whole Panel service)
Method: as §1

[4] = biological target: PIK3CA/PIK3R1 (p110 alpha/p85 alpha) (Homo sapiens, UniProt P42336); test: SelectScreen Adapta; format: biochemical; conditions: ATP Km, read-out: Percentage of inhibition
Method: as §1

LRRK2 G2019S FL = biological target: T18, LRRK2 G2019S FL (Homo sapiens, UniProt Q5S007, G2019S); test: SelectScreen Adapta; format: biochemical; conditions: ATP Km, read-out: Percentage of inhibition
T18 construct: LRRK2 G2019S FL; purchased Life Technologies (SelectScreen Whole Panel)
Method: as §1

PIP5K1A = biological target: T19, PIP5K1A (Homo sapiens, UniProt Q99755); test: SelectScreen Adapta; format: biochemical; conditions: ATP 10 µM, read-out: Percentage of inhibition
T19 construct: purchased Life Technologies (SelectScreen service)
Method: as §1

IRAK1 = biological target: T20, IRAK1 (Homo sapiens, UniProt P51617); test: SelectScreen Adapta; format: biochemical; conditions: ATP Km, read-out: Percentage of inhibition
T20 construct: purchased Life Technologies (SelectScreen service)
Method: as §1

[5] = biological target: T21, PIK3CA E545K/PIK3R1 (p110 alpha E545K/p85 alpha) (Homo sapiens, UniProt P42336, E545K); test: SelectScreen Adapta; format: biochemical; conditions: ATP Km, read-out: Percentage of inhibition
T21 construct: purchased Life Technologies (SelectScreen Whole Panel)
T21 sequence (P42336 whole entry E545K): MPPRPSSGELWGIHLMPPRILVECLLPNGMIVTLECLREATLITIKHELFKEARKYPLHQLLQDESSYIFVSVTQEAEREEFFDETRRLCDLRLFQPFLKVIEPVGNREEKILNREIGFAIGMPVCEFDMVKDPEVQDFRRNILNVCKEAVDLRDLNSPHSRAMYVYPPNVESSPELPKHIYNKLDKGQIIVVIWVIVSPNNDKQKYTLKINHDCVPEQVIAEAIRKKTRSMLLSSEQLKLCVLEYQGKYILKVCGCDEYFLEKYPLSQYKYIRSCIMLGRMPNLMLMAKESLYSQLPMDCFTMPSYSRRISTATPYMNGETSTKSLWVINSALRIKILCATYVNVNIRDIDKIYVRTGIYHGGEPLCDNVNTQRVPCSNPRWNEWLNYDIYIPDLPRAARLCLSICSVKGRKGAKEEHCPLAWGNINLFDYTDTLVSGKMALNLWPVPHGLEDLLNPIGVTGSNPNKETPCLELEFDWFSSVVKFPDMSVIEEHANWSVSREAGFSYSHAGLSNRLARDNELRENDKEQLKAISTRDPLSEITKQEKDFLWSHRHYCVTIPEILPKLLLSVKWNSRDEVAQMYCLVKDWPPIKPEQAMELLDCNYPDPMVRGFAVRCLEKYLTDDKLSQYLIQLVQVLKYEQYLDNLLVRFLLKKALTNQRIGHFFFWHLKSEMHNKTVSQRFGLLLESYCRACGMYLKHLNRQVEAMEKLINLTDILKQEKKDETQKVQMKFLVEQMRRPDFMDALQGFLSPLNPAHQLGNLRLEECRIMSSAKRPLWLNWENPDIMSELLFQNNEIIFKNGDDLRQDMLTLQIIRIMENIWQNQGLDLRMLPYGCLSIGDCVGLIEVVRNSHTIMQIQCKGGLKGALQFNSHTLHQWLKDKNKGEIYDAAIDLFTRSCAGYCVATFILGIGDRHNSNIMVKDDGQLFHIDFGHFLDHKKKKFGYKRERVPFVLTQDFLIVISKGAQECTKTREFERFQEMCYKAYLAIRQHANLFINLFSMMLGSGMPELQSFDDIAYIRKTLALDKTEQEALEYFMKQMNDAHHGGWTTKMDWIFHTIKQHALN
T21 sequence (P27986 whole entry partner): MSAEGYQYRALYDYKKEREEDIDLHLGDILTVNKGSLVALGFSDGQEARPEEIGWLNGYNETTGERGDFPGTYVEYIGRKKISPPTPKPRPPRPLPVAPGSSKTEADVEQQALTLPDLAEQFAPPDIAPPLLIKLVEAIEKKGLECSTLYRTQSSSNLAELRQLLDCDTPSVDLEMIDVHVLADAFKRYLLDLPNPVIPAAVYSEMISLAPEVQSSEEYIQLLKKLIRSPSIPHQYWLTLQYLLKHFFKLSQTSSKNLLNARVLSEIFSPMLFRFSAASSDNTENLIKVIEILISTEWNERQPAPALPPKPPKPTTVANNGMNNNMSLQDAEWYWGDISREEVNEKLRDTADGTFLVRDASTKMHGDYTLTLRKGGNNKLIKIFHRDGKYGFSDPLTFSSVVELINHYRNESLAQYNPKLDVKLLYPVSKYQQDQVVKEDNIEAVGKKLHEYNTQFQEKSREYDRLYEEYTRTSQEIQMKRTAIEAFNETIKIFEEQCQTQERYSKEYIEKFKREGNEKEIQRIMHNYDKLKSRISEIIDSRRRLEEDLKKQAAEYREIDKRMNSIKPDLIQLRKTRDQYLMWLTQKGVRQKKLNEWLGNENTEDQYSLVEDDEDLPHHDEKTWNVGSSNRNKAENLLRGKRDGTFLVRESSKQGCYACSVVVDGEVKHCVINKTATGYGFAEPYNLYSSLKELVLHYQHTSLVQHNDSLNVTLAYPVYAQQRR
Method: as §1

PI4K2A (PI4K2 alpha) = biological target: T22, PI4K2A (PI4K2 alpha) (Homo sapiens, UniProt Q9BTU6); test: SelectScreen Adapta; format: biochemical; conditions: ATP Km, read-out: Percentage of inhibition
T22 construct: purchased Life Technologies (SelectScreen Whole Panel)
Method: as §1

CDK9/cyclin T1 = CDK9/cyclin T1 (Homo sapiens, UniProt P50750); test: SelectScreen Adapta; format: biochemical; conditions: ATP Km, read-out: Percentage of inhibition
Method: as §1

CDK4/cyclin D1 = biological target: T23, CDK4/cyclin D1 (Homo sapiens, UniProt P11802); test: SelectScreen Adapta; format: biochemical; conditions: ATP 10 µM, read-out: Percentage of inhibition
T23 construct: purchased Life Technologies (SelectScreen Whole Panel service)
Method: as §1

CDK4/cyclin D3 = biological target: T24, CDK4/cyclin D3 (Homo sapiens, UniProt P11802); test: SelectScreen Adapta; format: biochemical; conditions: ATP 10 µM, read-out: Percentage of inhibition
T24 construct: purchased Life Technologies
Method: as §1

COc1ccc2[nH]c3c(=O)[nH]c4ccc(O)cc4c3c2c1 [Compound 55, 2-Hydroxy-10-methoxy-5,7-dihydro-6H-indolo[2,3-c]quinolin-6-one]
EC50 (U-2 OS cell line): 3.4 µM | inhibition at 1 µM (SPHK2): -1% | inhibition at 1 µM [1]: 44% | inhibition at 1 µM (PIK3C2G (PI3K-C2 gamma)): 47% | inhibition at 1 µM (LRRK2 I2020T): 100% | inhibition at 1 µM (PIK3CG (p110 gamma)): 19% | inhibition at 1 µM (PIK3C2A (PI3K-C2 alpha)): 14% | inhibition at 1 µM (CDK6/cyclin D1): 14% | inhibition at 1 µM (PI4K2B (PI4K2 beta)): 1% | inhibition at 1 µM [2]: 9% | inhibition at 1 µM (LRRK2 R1441C): 93% | inhibition at 1 µM (PIK3C2B): 67% | inhibition at 1 µM (PI4KA (PI4K alpha)): 0% | inhibition at 1 µM (PIP5K1C): 49% | inhibition at 1 µM [3]: 33% | inhibition at 1 µM (LRRK2 FL): 95% | inhibition at 1 µM (PIP5K1B): 33% | inhibition at 1 µM (DAPK1): 57% | inhibition at 1 µM (PI4KB (PI4K beta)): 41% | inhibition at 1 µM (CDK7/cyclin H/MNAT1): 27% | inhibition at 1 µM (LRRK2 G2019S): 95% | inhibition at 1 µM (PIK3C3 (hVPS34)): 9% | inhibition at 1 µM (CAMK1 (CaMK1)): 10% | inhibition at 1 µM [4]: 62% | inhibition at 1 µM (LRRK2 G2019S FL): 98% | inhibition at 1 µM (PIP5K1A): 23% | inhibition at 1 µM (IRAK1): 91% | inhibition at 1 µM [5]: 51% | inhibition at 1 µM (PI4K2A (PI4K2 alpha)): 1% | inhibition at 1 µM (CDK9/cyclin T1): 70% | inhibition at 1 µM (CDK4/cyclin D1): 12% | inhibition at 1 µM (CDK4/cyclin D3): 5% | melting point: 202 to 205 °C

From PMC9186362, “Design and biological evaluation of substituted 5,7-dihydro-6H-indolo[2,3-c]quinolin-6-one as novel selective Haspin inhibitors” (Journal of Enzyme Inhibition and Medicinal Chemistry, 2022)
